Reference: US20080085893A1, “MATRIX METALLOPROTEASE INHIBITORS” (priority 2006, published 2008)
“And” between values parts separate entries of the source, which are not always exact repeats. Identical values can stand only once.

Key:
Assay type in all cases: biochemical
[1] = target: T1, human MMP-1 (amino acids 100-262) (Homo sapiens, UniProt P03956); experiment: MMP dose response assay for determining IC50, MMP-1; settings: recombinant catalytic domain, fluorescent-quench substrate 100 nM
T1 construct: human MMP-1 (amino acids 100-262); made in house
T1 sequence (P03956 100-262): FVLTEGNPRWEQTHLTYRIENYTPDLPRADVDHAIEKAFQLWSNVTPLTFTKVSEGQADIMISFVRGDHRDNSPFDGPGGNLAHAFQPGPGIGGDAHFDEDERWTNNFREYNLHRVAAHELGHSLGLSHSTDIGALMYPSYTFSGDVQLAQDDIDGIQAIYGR
Description: MMP Dose Response Assay for Determining IC50
The following method was used for determining IC50 values of different inhibitor compounds against multiple MMP enzymes. Frozen stocks of recombinantly produced MMPs were prepared in assay buffer (50 mM HEPES pH 7.4, 10 mM CaCl2, 0.05% Brij-35). […] Enzyme concentrations in the assay were determined empirically and set such that proteolytic activity was maintained in a linear range over the time-course of the experiment. […] Each concentration for each test compound was tested in triplicate. MMP enzymes were equilibrated with compounds for 1 hour at room temperature, then a fluorescent-quench substrate (Acetyl-Cys(Eu)-Pro-Leu-Gly-Leu-Lys-(QSY7)-Ala-Arg-amide) was added to a final concentration of 100 nM. […] Data was analyzed by first calculating average background value from wells that contained only substrate, and this value was subtracted from the entire plate. The 100%, or maximum value, was determined by averaging control wells that contained enzyme, substrate and DMSO. For each well, the percent of control was calculated by dividing the well value by the average DMSO value obtained above.

[2] = target: T2, human MMP-2 (amino acids 1-660) (Homo sapiens, UniProt P08253); experiment: MMP dose response assay for determining IC50, MMP-2; settings: recombinant enzyme, fluorescent-quench substrate 100 nM; read-out: MMP-2
T2 construct: human MMP-2 (amino acids 1-660); made in house
T2 sequence (P08253 110-660): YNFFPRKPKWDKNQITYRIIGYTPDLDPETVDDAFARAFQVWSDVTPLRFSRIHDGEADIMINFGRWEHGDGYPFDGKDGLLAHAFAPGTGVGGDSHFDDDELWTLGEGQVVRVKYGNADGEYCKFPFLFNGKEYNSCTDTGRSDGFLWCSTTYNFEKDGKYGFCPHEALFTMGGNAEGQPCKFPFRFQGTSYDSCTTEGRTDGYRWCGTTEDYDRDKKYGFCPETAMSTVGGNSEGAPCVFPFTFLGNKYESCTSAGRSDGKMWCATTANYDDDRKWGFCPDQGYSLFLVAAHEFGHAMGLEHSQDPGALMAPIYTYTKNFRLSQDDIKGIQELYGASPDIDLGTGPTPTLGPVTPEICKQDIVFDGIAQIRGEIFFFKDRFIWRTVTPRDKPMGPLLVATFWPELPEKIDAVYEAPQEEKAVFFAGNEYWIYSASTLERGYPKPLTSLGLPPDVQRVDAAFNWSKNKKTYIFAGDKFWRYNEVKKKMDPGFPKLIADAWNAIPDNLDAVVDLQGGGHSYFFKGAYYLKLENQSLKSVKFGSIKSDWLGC
Method in brief: (§1)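 Recombinant enzymes in 50 mM HEPES pH 7.4, 10 mM CaCl2, 0.05% Brij-35, at empirically set levels keeping activity linear, preincubated 1 h at room temperature with compound in triplicate. Fluorescence-quench peptide substrate (Eu/QSY7) added at 100 nM final. Background-subtracted signal expressed as percent of DMSO control for IC50.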

[3] = target: T3, human MMP-9 (amino acids 107-446) (Homo sapiens, UniProt P14780); experiment: MMP dose response assay for determining IC50, MMP-9; settings: recombinant enzyme, fluorescent-quench substrate 100 nM; read-out: MMP-9
T3 construct: human MMP-9 (amino acids 107-446); made in house
T3 sequence (P14780 107-446): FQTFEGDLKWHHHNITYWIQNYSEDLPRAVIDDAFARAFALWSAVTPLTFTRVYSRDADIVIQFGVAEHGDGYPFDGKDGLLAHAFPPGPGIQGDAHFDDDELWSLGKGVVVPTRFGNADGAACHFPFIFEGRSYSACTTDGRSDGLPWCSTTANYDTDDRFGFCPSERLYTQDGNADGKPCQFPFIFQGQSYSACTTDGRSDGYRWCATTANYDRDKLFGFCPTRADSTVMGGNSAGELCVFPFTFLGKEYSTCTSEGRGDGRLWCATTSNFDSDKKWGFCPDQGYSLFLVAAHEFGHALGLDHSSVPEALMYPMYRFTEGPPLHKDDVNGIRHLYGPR
Method in brief: as §1

Compound | IC50 [1] | IC50 [2] | IC50 [3]
Cc1ccc(Oc2ccc(N(C[C@H](N[C@@H](C)c3ccccc3)C(=O)NO)S(C)(=O)=O)cc2)cc1 [Example 47, N-Hydroxy (2S)-3-{N-[4-(4-methylphenoxy)phenyl],N-methanesulfonylamino}-2-[(1S)-1-phenyl-1-ethyl]aminopropionamide] | 6.79 µM | 0.0117 µM | 0.00054 µM
Cc1ccc(Oc2ccc(N(C[C@H](Nc3ccc4ccccc4c3)C(=O)NO)S(C)(=O)=O)cc2)cc1 [Example 60, N-Hydroxy (2S)-3-{N-[4-(4-methylphenoxy)phenyl],N-methanesulfonylamino}-2-(naphthylen-2-yl)aminopropionamide] | 5.98 µM and > 10 µM | 1.44 µM and 0.875 µM | 0.0865 µM and 0.0938 µM
CS(=O)(=O)N(C[C@H](O)C(=O)NO)c1ccc(C#Cc2cccs2)cc1 [Example 64, N-Hydroxy (2S)-2-hydroxy-3-{N-[4-(4-thiophen-2-ylacetylene)phenyl],N-methanesulfonylamino}propionamide] | > 10 µM | 0.103 µM | 0.774 µM
CS(=O)(=O)N(C[C@@H](C(=O)NO)N1CCN(C(=O)OCc2ccccc2)CC1)c1ccc(Oc2ccc(C(F)(F)F)cc2)cc1 [Example 67, N-Hydroxy (2S)-2-[(4-benzyloxycarbonyl)piperazin-1-yl]-3-{N-[4-(4-trifluoromethylphenoxy)phenyl],N-methanesulfonylamino}propionamide] | > 10 µM | 0.00476 µM and 0.00437 µM | 0.00652 µM and 0.00851 µM
CC(C)N(CCNC(=O)OCc1ccccc1)[C@@H](CN(c1ccc(Oc2ccc(C(F)(F)F)cc2)cc1)S(C)(=O)=O)C(=O)NO [Example 68] | > 10 µM | 0.262 µM | 0.0288 µM
CS(=O)(=O)N(C[C@@H](C(=O)NO)N1CCC(O)CC1)c1ccc(Oc2ccc(C(F)(F)F)cc2)cc1 [Example 71, N-Hydroxy (2S)-2-(4-hydroxypiperidin-1-yl)-3-{N-[4-(4-trifluoromethylphenoxy)phenyl],N-methanesulfonylamino}propionamide] | 8.55 µM and > 10 µM | 0.00157 µM and 0.00493 µM and 0.0107 µM | 0.00066 µM and 0.00145 µM and 0.00356 µM
CS(=O)(=O)N(C[C@@H](C(=O)NO)N1Cc2ccccc2C1)c1ccc(Oc2ccc(C(F)(F)F)cc2)cc1 [Example 72, N-Hydroxy (2S)-2-(isoindolin-2-yl)-3-{N-[4-(4-trifluoromethylphenoxy)phenyl],N-methanesulfonylamino}propionamide] | > 10 µM | 0.00376 µM and 0.00102 µM | 0.00072 µM and 0.00017 µM
CN(C)[C@H]1CCN([C@@H](CN(c2ccc(Oc3ccc(C(F)(F)F)cc3)cc2)S(C)(=O)=O)C(=O)NO)C1 [Example 74, N-Hydroxy (2S)-2-[(3S)-3-N,N-dimethylaminopyrrolidin-1-yl]-3-{N-[4-(4-trifluoromethylphenoxy)phenyl],N-methanesulfonylamino}propionamide] | > 10 µM | 0.0177 µM | 0.00386 µM
CN(C)[C@@H]1CCN([C@@H](CN(c2ccc(Oc3ccc(C(F)(F)F)cc3)cc2)S(C)(=O)=O)C(=O)NO)C1 [Example 75, N-Hydroxy (2S)-2-[(3R)-3-N,N-dimethylaminopyrrolidin-1-yl]-3-{N-[4-(4-trifluoromethylphenoxy)phenyl],N-methanesulfonylamino}propionamide] | > 10 µM | 0.0152 µM and 0.0215 µM | 0.00218 µM and 0.00316 µM
CS(=O)(=O)N(C[C@@H](C(=O)NO)N1CCN(c2ccc(Cl)cc2)CC1)c1ccc(Oc2ccc(C(F)(F)F)cc2)cc1 [Example 77, N-Hydroxy (2S)-2-[4-(4-chlorophenyl)piperazin-1-yl]-3-{N-[4-(4-trifluoromethylphenoxy)phenyl],N-methanesulfonylamino}propionamide] | > 10 µM | 0.119 µM | 0.256 µM
CS(=O)(=O)N(C[C@H](NCCc1c[nH]c2ccccc12)C(=O)NO)c1ccc(Oc2ccc(C(F)(F)F)cc2)cc1 [Example 78] | > 10 µM | 0.318 µM | 0.116 µM
CC(C)N(CCN1C(=O)N(C)C(C)(C)C1=O)[C@@H](CN(c1ccc(Oc2ccc(C(F)(F)F)cc2)cc1)S(C)(=O)=O)C(=O)NO [Example 80, N-Hydroxy (2S)-2-{N-(2-propyl),N-[2-(1,5,5-trimethylhydantoin-3-yl)ethyl]amino}-3-{N-[4-(4-trifluoromethylphenoxy)phenyl]-N-methanesulfonylamino}propionamide] | > 10 µM | 0.0243 µM | 0.00267 µM
COC[C@@H]1CCCN1[C@@H](CN(c1ccc(Oc2ccc(C(F)(F)F)cc2)cc1)S(C)(=O)=O)C(=O)NO [Example 82, N-Hydroxy (2S)-2-[(2S)-2-methoxymethylpyrrolidin-1-yl]-3-{N-[4-(4-trifluoromethylphenoxy)phenyl],N-methanesulfonylamino}propionamide] | > 10 µM | 0.0113 µM | 0.00732 µM

Other lines, results leading:

IC50 [1] | IC50 [2] | IC50 [3] | Compound
> 10 µM | 0.0241 µM | 0.00154 µM | Cc1ccc(Oc2ccc(N(C[C@H](N[C@H](C)c3ccccc3)C(=O)NO)S(C)(=O)=O)cc2)cc1 [Example 46, N-Hydroxy (2S)-3-{N-[4-(4-methylphenoxy)phenyl],N-methanesulfonylamino}-2-[(1R)-1-phenyl-1-ethyl]aminopropionamide]
> 10 µM | 0.0562 µM | 0.0473 µM | CS(=O)(=O)N(C[C@H](O)C(=O)NO)c1ccc(C#Cc2ccc(Cl)cc2)cc1 [Example 62, N-Hydroxy (2S)-2-hydroxy-3-{N-[4-(4-chlorophenylacetylene)phenyl],N-methanesulfonylamino}propionamide]
> 10 µM | 0.281 µM | 0.0675 µM | CC(C)N(Cc1ccccc1)[C@@H](CN(c1ccc(Oc2ccc(C(F)(F)F)cc2)cc1)S(C)(=O)=O)C(=O)NO [Example 69, N-Hydroxy (2S)-2-[N-benzyl-N-(2-propyl)amino]-3-{N-[4-(4-trifluoromethylphenoxy)phenyl],N-methanesulfonylamino}propionamide]
> 10 µM | 0.00465 µM and 0.00499 µM and 0.0158 µM | 0.0019 µM and 0.00152 µM and 0.00629 µM | CS(=O)(=O)N(C[C@@H](C(=O)NO)N1CCS(=O)(=O)CC1)c1ccc(Oc2ccc(C(F)(F)F)cc2)cc1 [Example 70, N-Hydroxy (2S)-2-[1,1-bis(oxo)thiomorpholin-4-yl]-3-{N-[4-(4-trifluoromethylphenoxy)phenyl],N-methanesulfonylamino}propionamide]
> 10 µM | 0.0472 µM | 0.017 µM | CS(=O)(=O)N(C[C@@H](C(=O)NO)N1CCC(c2ccccc2)CC1)c1ccc(Oc2ccc(C(F)(F)F)cc2)cc1 [Example 76, N-Hydroxy (2S)-3-{N-[4-(4-trifluoromethylphenoxy)phenyl],N-methanesulfonylamino}-2-(4-phenylpiperidin-1-yl)propionamide]
> 10 µM | 0.0389 µM | 0.0371 µM | CS(=O)(=O)N(C[C@@H](C(=O)NO)N1CCC(O)(c2ccc(Br)cc2)CC1)c1ccc(Oc2ccc(C(F)(F)F)cc2)cc1 [Example 79, N-Hydroxy (2S)-2-[4-(4-bromophenyl)-4-hydroxypiperidin-1-yl]-3-{N-[4-(4-trifluoromethylphenoxy)phenyl],N-methanesulfonylamino}propionamide]
> 10 µM | 0.0142 µM | 0.00316 µM | COC[C@H]1CCCN1[C@@H](CN(c1ccc(Oc2ccc(C(F)(F)F)cc2)cc1)S(C)(=O)=O)C(=O)NO [Example 81, N-Hydroxy (2S)-2-[(2R)-2-methoxymethylpyrrolidin-1-yl]-3-{N-[4-(4-trifluoromethylphenoxy)phenyl],N-methanesulfonylamino}propionamide]
